Measured values from ChEMBL document CHEMBL1201862, “PubChem BioAssay data set” (2004).
Active and inactive are the calls of the source.

Assays:
[1] = molecular target: T1, Caspase-6 (Homo sapiens, UniProt P55212); test: human caspase-6 inhibitors, dose response, biochemical, VEID-R110 fluorescence, cherry-pick (AID 720632)
T1 sequence (P55212 whole entry): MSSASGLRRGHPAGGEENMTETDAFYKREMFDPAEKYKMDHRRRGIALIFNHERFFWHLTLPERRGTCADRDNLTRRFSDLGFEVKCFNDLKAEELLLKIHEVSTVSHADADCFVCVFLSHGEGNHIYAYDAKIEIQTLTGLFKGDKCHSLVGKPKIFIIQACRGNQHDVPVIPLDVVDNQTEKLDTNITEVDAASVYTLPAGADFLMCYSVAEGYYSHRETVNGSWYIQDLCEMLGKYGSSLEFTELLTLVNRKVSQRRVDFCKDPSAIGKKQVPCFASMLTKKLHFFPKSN

[2] = molecular target: Cytochrome P450 3A4 (Homo sapiens, UniProt P08684); settings: Potency;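 further: confirmatory qHTS run detecting inhibitors and substrates of CYP3A4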
Cytochrome P450 3A4, sequence (P08684 whole entry): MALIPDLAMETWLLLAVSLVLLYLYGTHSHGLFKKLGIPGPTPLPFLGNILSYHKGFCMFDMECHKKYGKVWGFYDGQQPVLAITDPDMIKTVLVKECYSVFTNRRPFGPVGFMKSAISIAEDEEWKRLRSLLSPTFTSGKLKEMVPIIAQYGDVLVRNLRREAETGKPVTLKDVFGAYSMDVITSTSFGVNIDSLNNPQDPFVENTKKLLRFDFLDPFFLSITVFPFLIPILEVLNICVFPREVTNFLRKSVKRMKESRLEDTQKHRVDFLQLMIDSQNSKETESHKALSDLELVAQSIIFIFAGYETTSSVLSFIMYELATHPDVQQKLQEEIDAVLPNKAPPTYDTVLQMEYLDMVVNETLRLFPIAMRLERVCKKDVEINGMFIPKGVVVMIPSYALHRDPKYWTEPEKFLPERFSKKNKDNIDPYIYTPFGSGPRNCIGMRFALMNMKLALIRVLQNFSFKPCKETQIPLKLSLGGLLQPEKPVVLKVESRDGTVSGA

[3] = molecular target: T2, Polyadenylate-binding protein 1 (Homo sapiens, UniProt P11940); test: PABP1 MLLE–PAM2 binding inhibitor potency, dose response, biochemical, fluorescence polarization, FITC-PAM2 peptide (AID 602259); assay type: functional; settings: read-out: IC50_Mean
T2 sequence (P11940 whole entry): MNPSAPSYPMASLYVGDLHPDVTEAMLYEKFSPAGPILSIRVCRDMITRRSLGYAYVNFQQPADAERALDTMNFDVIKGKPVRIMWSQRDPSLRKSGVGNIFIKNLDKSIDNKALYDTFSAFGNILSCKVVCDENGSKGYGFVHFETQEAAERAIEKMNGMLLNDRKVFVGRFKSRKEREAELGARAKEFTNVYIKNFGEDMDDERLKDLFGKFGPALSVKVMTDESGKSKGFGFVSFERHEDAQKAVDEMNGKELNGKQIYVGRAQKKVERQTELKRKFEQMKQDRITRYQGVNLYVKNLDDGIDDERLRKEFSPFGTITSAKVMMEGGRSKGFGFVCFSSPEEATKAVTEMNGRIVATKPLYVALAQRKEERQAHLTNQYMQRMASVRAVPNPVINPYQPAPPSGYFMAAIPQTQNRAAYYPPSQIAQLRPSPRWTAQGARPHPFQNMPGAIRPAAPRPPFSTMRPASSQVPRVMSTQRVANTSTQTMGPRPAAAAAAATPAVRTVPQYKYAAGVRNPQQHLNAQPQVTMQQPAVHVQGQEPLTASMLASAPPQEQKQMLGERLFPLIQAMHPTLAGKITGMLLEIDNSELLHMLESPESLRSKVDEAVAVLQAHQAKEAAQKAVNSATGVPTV

[4] = molecular target: T2, Polyadenylate-binding protein 1; test: PABP1 MLLE–PAM2 interaction inhibitors, dose response, miRNA deadenylation inhibitor project, biochemical, fluorescence polarization, Cy5-PAM2 peptide, secondary (AID 602260); assay type: functional; settings: read-out: IC50_Mean
[5] = molecular target: T3, High affinity choline transporter 1 (Homo sapiens, UniProt Q9GZV3); test: CHT inhibitors, dose response, cell-based, 5-point CRC, membrane potential dye (AID 504840); assay type: functional
T3 sequence (Q9GZV3 whole entry): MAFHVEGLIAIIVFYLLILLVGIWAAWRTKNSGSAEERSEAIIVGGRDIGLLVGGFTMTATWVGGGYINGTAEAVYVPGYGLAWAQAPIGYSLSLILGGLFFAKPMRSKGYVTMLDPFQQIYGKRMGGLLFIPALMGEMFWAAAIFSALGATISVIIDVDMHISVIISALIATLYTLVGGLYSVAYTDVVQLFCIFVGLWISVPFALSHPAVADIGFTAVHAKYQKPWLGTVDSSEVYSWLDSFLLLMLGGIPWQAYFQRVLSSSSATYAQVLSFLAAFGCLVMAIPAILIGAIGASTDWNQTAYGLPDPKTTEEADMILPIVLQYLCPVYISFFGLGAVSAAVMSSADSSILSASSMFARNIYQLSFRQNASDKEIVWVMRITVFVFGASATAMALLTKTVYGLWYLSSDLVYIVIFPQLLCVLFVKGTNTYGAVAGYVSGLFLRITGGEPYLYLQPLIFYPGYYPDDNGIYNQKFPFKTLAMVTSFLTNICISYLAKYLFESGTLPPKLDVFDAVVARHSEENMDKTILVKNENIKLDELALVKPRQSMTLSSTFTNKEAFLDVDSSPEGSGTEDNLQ

[6] = inhibitors of SNCA 5'UTR-driven reporter translation, confirmation, H4 neuroglioma cells, luminescence (AID 1988); assay type: functional, cell-based
[7] = inhibitors of firefly luciferase expression or activity, dose response, H4 neuroglioma cells, luminescence (AID 1990); assay type: functional, cell-based
[8] = system: Vero; test: cells; assay type: functional; settings: Chlorocebus sabaeus
[9] = growth suppression of PTEN-null colon cells, dose response, cell-based, HCT116 PTEN knockout (AID 1047); assay type: functional;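 further: HCT116 colon tumor cells with PTEN knocked out; cells exposed to compound for 60 hours before readout; potency for loss of cell viability measured by luminescence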
[10] = growth suppression of beta-catenin-knockout colon cells, dose response, cell-based, HCT116, human colon tumor (AID 1045); assay type: functional;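 further: HCT116 colon tumor cells with beta catenin knocked out; cells exposed to compound for 60 hours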
[11] = inhibitors of intracellular T. cruzi replication, confirmation, NIH3T3 host cells, beta-gal luminescence (AID 2044); assay type: functional, cell-based;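 further: intracellular parasites grown in NIH/3T3 mouse fibroblasts as host cells; luminescent beta-galactosidase reporter signal from transgenic T. cruzi replicating inside host cells; inhibitors lower the luminescence signal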
[12] = cytotoxicity toward NIH3T3 fibroblasts, dose response, counter-screen, cell-based, ATP luminescence, mouse fibroblasts (AID 2010); assay type: functional;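 further: cells exposed to compound for about 90 hours before reading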
[13] = molecular target: T4, Type-1 angiotensin II receptor (Homo sapiens, UniProt P30556); test: AT1 receptor antagonists, dose response, selectivity assay for APJ receptor antagonist project, cell-based, uHTS hits (AID 463214); assay type: functional;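 further: antagonist potency against angiotensin II stimulated AT1 response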
T4 sequence (P30556 whole entry): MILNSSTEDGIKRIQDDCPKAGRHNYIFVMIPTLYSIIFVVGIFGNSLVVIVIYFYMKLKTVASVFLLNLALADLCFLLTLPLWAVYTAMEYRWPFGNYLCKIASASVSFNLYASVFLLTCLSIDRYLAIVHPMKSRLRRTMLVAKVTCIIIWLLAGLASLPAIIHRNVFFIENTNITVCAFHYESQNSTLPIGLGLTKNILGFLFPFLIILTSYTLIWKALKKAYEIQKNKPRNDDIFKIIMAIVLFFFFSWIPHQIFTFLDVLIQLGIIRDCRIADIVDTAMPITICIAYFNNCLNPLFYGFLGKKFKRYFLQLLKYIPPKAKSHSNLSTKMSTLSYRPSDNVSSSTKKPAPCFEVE

[14] = molecular target: Beta-galactosidase (Escherichia coli, UniProt Q8VNN2); test: PubChem AID 485352; assay type: functional
Beta-galactosidase, sequence (Q8VNN2 whole entry): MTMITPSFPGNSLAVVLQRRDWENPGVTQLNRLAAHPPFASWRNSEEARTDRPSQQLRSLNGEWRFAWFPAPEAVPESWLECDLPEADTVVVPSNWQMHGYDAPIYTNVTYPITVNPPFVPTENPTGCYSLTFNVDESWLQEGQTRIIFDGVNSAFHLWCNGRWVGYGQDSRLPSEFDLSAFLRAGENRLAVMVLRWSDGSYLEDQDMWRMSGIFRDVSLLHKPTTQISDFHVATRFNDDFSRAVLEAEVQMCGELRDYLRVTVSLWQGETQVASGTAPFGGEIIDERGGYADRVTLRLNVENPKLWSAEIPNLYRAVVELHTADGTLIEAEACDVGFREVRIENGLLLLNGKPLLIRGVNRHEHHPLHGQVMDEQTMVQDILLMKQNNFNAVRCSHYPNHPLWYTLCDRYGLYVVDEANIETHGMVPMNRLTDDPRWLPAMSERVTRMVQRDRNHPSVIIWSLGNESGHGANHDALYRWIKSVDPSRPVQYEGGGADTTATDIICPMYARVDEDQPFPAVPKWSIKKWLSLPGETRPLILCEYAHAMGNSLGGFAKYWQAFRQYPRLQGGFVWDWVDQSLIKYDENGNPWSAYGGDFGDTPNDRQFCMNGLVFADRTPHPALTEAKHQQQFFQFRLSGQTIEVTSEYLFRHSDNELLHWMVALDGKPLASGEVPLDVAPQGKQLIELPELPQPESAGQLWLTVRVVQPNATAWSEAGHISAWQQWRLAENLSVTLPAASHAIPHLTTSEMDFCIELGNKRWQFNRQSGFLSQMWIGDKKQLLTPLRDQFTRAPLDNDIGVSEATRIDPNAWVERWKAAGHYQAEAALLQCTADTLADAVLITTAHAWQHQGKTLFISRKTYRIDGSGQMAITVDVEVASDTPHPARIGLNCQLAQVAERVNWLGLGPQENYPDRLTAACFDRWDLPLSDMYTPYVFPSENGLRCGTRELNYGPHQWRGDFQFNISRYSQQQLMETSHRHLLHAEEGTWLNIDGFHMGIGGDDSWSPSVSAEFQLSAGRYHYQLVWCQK

[15] = LGR2 antagonists, dose response, cell-based, HEK293, CRE-luciferase reporter, cherry pick, set 2 (AID 743343); assay type: functional;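 further: transfected cells were stimulated with diluted bursicon conditioned medium after compound addition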
[16] = MC4R antagonists, dose response, counter-screen for LGR2 antagonist project, cell-based, plate reader, cherry pick (AID 743444); assay type: functional;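 further: transfected HEK 293 cells stimulated with alpha-MSH peptide; potency of inhibitors of the alpha-MSH evoked signal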
[17] = cells; assay type: functional
[18] = molecular target: T5, Ubiquitin-conjugating enzyme E2 N (Homo sapiens, UniProt P61088); assay type: functional;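 further: Dose-response confirmation in a TR-FRET assay detecting UBC13-driven polyubiquitin chain formation, inhibition measured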
T5 sequence (P61088 whole entry): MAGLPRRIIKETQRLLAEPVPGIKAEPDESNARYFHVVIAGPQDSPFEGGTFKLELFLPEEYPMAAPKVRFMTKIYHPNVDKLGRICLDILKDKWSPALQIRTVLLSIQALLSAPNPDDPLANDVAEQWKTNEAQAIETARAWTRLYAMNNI

[19] = P. falciparum 3D7-ScDHODH growth inhibitors, dose response, SYBR Green, dry powder samples (AID 1159570); assay type: functional, cell-based;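 further: parasite growth measured after 72 hours of compound exposure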
[20] = P. falciparum Dd2 growth inhibitors, dose response, SYBR Green, cherry-picked samples (AID 1159567); assay type: functional, cell-based
[21] = P. falciparum ATP4 D1247Y mutant growth inhibitors, dose response, NITD609-resistant line, SYBR Green, dry powder (AID 1159571); assay type: functional, cell-based;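 further: parasites synchronized at ring stage by sorbitol before testing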
[22] = P. falciparum Dd2 growth inhibitors, dose response, SYBR Green, dry powder samples (AID 1159566); assay type: functional, cell-based;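 further: potency for growth inhibition with lower SYBR green DNA signal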
[23] = molecular target: T6, Rac GTPase-activating protein 1 (Homo sapiens, UniProt Q9H0H5); test: MgcRacGAP GTPase-activating activity inhibitors, confirmation, biochemical, ADP Hunter fluorescence, primary and confirmatory (AID 624330); assay type: functional
T6 sequence (Q9H0H5 whole entry): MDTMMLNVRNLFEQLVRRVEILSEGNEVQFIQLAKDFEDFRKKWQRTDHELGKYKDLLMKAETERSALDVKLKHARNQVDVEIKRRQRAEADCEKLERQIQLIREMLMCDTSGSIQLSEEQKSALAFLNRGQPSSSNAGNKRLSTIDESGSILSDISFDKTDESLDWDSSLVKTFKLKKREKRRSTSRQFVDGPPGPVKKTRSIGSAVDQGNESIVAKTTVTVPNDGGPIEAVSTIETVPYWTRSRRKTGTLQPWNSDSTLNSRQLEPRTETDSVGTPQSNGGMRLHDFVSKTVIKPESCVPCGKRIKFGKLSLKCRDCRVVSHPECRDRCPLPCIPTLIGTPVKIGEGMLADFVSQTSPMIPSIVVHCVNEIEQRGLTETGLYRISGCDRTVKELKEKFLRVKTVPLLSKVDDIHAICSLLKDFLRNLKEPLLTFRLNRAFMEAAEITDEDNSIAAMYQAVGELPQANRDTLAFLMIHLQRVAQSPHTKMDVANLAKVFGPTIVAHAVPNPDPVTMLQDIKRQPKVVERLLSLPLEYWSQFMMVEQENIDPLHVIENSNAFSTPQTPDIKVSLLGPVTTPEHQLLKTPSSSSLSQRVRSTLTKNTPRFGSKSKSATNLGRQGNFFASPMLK

CCCCNc1nc(NCc2ccccc2)nc2ccccc12
AC50 [1]: 15.6 µM (active)

NC(=O)c1ccccc1 [BENZAMIDE]
AC50 [2]: 0.005 µM (inconclusive)

CC(=O)Nc1ccc(C(=O)CSc2ncn(-c3ccccc3)n2)cc1
IC50 [3]: > 66 µM (inactive)
IC50 [4]: > 66 µM (inactive)

O=C1NC(c2ccccc2)=C(c2ccc3ccccc3n2)C(c2ccncc2)N1 (centres undefined)
IC50 [5]: 4.57 µM (active)

NC(=O)c1oc2ccccc2c1NC(=O)c1ccc([N+](=O)[O-])o1
EC50 [6]: 4.08 µM (active)
EC50 [7]: 8.49 µM (active)
CC50 [8]: 5.74 µM (active)

CC(=O)OC1CCC2C3CCc4cc(O)ccc4C3CCC12C (centres undefined)
AC50 [2]: 39.8 µM (inconclusive)

Fc1cc(F)c(F)c(SCCc2ccncc2)c1F
EC50 [9]: 29.7 µM (active)
EC50 [10]: 30.7 µM (active)

O=C(Nc1cccc(Cl)c1)c1cccc(N2C(=O)C3CC=CCC3C2=O)c1 (centres undefined)
AC50 [1]: 9.42 µM (active)

O=C(NC(N=C(S)Nc1c(Cl)cccc1Cl)C(Cl)(Cl)Cl)c1cccc([N+](=O)[O-])c1 (centres undefined)
EC50 [11]: 2.22 µM (active)
EC50 [9]: 12.4 µM (active)
EC50 [12]: > 60 µM (not active)
EC50 [10]: 16.2 µM (active)

CCCCCC[C@H]1C(=O)O[C@H](C)[C@H](NC(=O)c2cccc(NC=O)c2O)C(=O)O[C@@H](C)[C@@H]1OC(=O)CC(C)C [ANTIMYCIN A]
AC50 [2]: 6.31 µM (inconclusive)

SC1=NCCc2ccccc2C1c1ccccc1Cl (centres undefined)
IC50 [13]: 13.8 µM (active)
EC50 [14]: > 40 µM (inactive)

CC(C)CCN1CCc2nc(-c3ccccc3)c3c(c2C1)COC(C)C3 (centres undefined)
AC50 [2]: 3.16 µM (inconclusive)

O=S(=O)(c1ccc2[nH]c(-c3ccccc3)nc2c1)N1CCN(c2ccc(Cl)cc2)CC1
EC50 [9]: 4.83 µM (active)
EC50 [10]: 5.15 µM (active)

CSc1ccc(C2C(C#N)=C(N)Oc3cc4c(cc32)OCO4)cc1 (centres undefined)
EC50 [9]: 6.59 µM (active)
EC50 [10]: 6.05 µM (active)

CC(C)=CCCC1(C)C=Cc2c(O)c3c(c(CC=C(C)C)c2O1)OC12C(=CC4CC1C(C)(C)OC2(C/C=C(/C)C(=O)O)C4=O)C3=O (centres undefined)
AC50 [2]: 39.8 µM (inconclusive)

Cc1ccnc(NS(=O)(=O)c2ccc(NC(=O)c3ccc(Cl)cc3[N+](=O)[O-])cc2)n1
IC50 [5]: 13.2 µM (active)

O=C1/C(=C/c2cccc(Cl)c2)SC(=S)N1CCC(=O)N1CCCCC1CCO (centres undefined)
CC50 [8]: 19.9 µM (active)

CNC(=O)Oc1cccc(-c2cn3cc(Cl)ccc3n2)c1
AC50 [15]: 15.8 µM (active)
AC50 [16]: 18.6 µM (active)

Cc1ccccc1/C=C/C(=O)NCC(=O)N1CCC(N(C)C2CCCCC2C)CC1 (centres undefined)
IC50 [5]: 14.5 µM (active)

CC(=O)Nc1ccc(NC(=O)CCC(=O)OCC(=O)c2ccc(C)c([N+](=O)[O-])c2)cc1
IC50 [13]: > 40 µM (not active)
EC50 [14]: > 40 µM (inactive)

O=C(O)c1cccc(S(=O)(=O)Nc2ccc3c(c2)OCO3)c1
IC50 [3]: > 66 µM (inactive)
IC50 [4]: > 66 µM (inactive)

CC1CCCCC1NC(=O)c1ccc(S(=O)(=O)NCC2CCCO2)cc1 (centres undefined)
IC50 [5]: 12.3 µM (active)

FC(F)(F)c1ccc(CN2C[C@@H]3C(c4ccccc4)C4(c5ccccc5)CC3(C4)[C@H]2c2ccccc2)cc1 (some centres undefined)
AC50 [2]: 15.8 µM (inconclusive)

O=C(COc1ccc(Cl)cc1)NNC(=O)c1ccccn1
IC50 [17]: 6.74 µM (active)
IC50 [18]: > 20 µM (inactive)

C/C=C/c1ccc2c(c1)[C@H]1[C@H](CCN1S(=O)(=O)c1ccccc1C)[C@@H](CO)N2
AC50 [19]: 1.46 µM (active)
AC50 [20]: 1.83 µM (active)
AC50 [21]: 0.942 µM (active)
AC50 [22]: 1.18 µM (active)

O=C(Cn1cc(C(=O)c2cccs2)c2ccccc21)NC1CCCCC1
IC50 [18]: > 20 µM (inactive)

O=C(NC(=S)NC(CO)Cc1ccccc1)c1ccc(F)cc1 (centres undefined)
IC50 [3]: > 66 µM (inactive)
IC50 [4]: > 66 µM (inactive)

Cc1ccc(CSc2nc3ccncc3n2CC(=O)Nc2cc(C)cc(C)c2)cc1
EC50 [9]: 26.3 µM (active)
EC50 [10]: 30.7 µM (active)

Fc1ccc(CN2CC[C@H]3C=CCc4cccc(c43)C2)cc1
IC50 [3]: > 66 µM (inactive)
IC50 [4]: > 66 µM (inactive)

Sc1ncc2cnccn12
IC50 [3]: > 66 µM (inactive)
IC50 [23]: 52.3 µM (active)
IC50 [4]: > 66 µM (inactive)

FC(F)(F)c1cccc(Sc2nc(-c3ccccc3)nnc2C(F)(F)F)c1
IC50 [13]: 21.4 µM (not active)
EC50 [14]: > 40 µM (inactive)

CN(C)CCCN(C(=O)C1=COCCO1)c1nc2ccc(Br)cc2s1
CC50 [8]: > 25 µM (active)

Cc1ccc(C(=O)CNc2ccccc2C)cc1
IC50 [13]: 8.2 µM (active)
EC50 [14]: > 40 µM (inactive)

CC(OC(=O)c1oc2ccccc2c1CSC1CCCCC1)C(=O)NC(N)=O (centres undefined)
EC50 [9]: 24.9 µM (active)
EC50 [10]: 55.1 µM (active)
